Laboratory results from PubChem BioAssay AID296 (DTP/NCI, 2004).
“And” between values parts separate entries of the source, which are not always exact repeats. Identical values can stand only once. Results filed as inconclusive are left out.

Tested on: MX-1 breast xenograft, nude mice, tumor weight T/C
Assay: NCI In Vivo Anticancer Drug Screen. Data for tumor model Human Mammary Carcinoma MX-1 Xenograft (intrarenal inoculation) in NU/NU Swiss (nude) mice
Details: endpoint: mean tumor weight change, higher = larger tumour
Method in brief: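 Read-out: treated (T) over vehicle control (C) ratio of survival or tumor size. Dosing in animals carrying the transplanted tumor.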

[1] = dose: 200.0 mg/kg/injection, schedule: Q04DX003 (sc), vehicle: saline with Tween-80
[2] = dose: 400.0 mg/kg/injection, schedule: Q04DX003 (sc), vehicle: saline with Tween-80
[3] = dose: 800.0 mg/kg/injection, schedule: Q04DX003 (sc), vehicle: saline with Tween-80
[4] = dose: 1200.0 mg/kg/injection, schedule: Q04DX003 (sc), vehicle: saline with Tween-80
[5] = dose: 2400.0 mg/kg/injection, schedule: Q04DX003 (sc), vehicle: saline with Tween-80
[6] = dose: 300.0 mg/kg/injection, schedule: Q04DX003 (sc), vehicle: suspension in saline
[7] = dose: 12.5 mg/kg/injection, schedule: Q01DX010 (sc), vehicle: Klucel (hydroxypropylcellulose) (HPC)

## C[C@]12CC[C@@H]3c4ccc(OC(=O)Cc5ccc(N(CCCl)CCCl)cc5)cc4CC[C@H]3[C@@H]1CC[C@@H]2OC(=O)Cc1ccc(N(CCCl)CCCl)cc1
[1]
  T/C: 58 % of control
[2]
  T/C: 50 % of control
[3]
  T/C: 33 % of control
[4]
  T/C: 36 % of control
dose: 1600.0 mg/kg/injection, schedule: Q04DX003 (sc), vehicle: saline with Tween-80
  T/C: 7 % of control and 26 % of control
dose: 2000.0 mg/kg/injection, schedule: Q04DX003 (sc), vehicle: saline with Tween-80
  T/C: 21 % of control
[5]
  T/C: 35 % of control

## CCCCCCC(=O)CC(SCC)c1ccccc1Cl (configuration not stated)
dose: 300.0 mg/kg/injection, schedule: Q04DX003 (sc), vehicle: saline with Tween-80
  T/C: 75 % of control
dose: 600.0 mg/kg/injection, schedule: Q04DX003 (sc), vehicle: saline with Tween-80
  T/C: 88 % of control
[4]
  T/C: 72 % of control
[5]
  T/C: 96 % of control

## Cc1ncc(CNC(=O)N(CCCl)N=O)c(N)n1
dose: 9.38 mg/kg/injection, schedule: Q04DX003 (sc), vehicle: saline
  T/C: 43 % of control
dose: 18.75 mg/kg/injection, schedule: Q04DX003 (sc), vehicle: saline
  T/C: 28 % of control

## Cc1cccc(OCC(O)CN2CC2)c1 (configuration not stated)
dose: 50.0 mg/kg/injection, schedule: Q04DX003 (ip), vehicle: saline with Tween-80
  T/C: 70 % of control
dose: 100.0 mg/kg/injection, schedule: Q04DX003 (ip), vehicle: saline with Tween-80
  T/C: 58 % of control
dose: 200.0 mg/kg/injection, schedule: Q04DX003 (ip), vehicle: saline with Tween-80
  T/C: 43 % of control

## ClCC[Se](Cl)(Cl)c1ccccc1
dose: 12.5 mg/kg/injection, schedule: Q04DX003 (sc), vehicle: saline
  T/C: 89 % of control
dose: 25.0 mg/kg/injection, schedule: Q04DX003 (sc), vehicle: saline
  T/C: 109 % of control
dose: 50.0 mg/kg/injection, schedule: Q04DX003 (sc), vehicle: saline
  T/C: 80 % of control
dose: 100.0 mg/kg/injection, schedule: Q04DX003 (sc), vehicle: saline
  T/C: 59 % of control

## O=C[C@@H](CO)O[C@H](C=O)c1c[nH]c(=O)[nH]c1=O
dose: 18.75 mg/kg/injection, schedule: Q04DX003 (ip), vehicle: saline
  T/C: 91 % of control
dose: 37.5 mg/kg/injection, schedule: Q04DX003 (ip), vehicle: saline
  T/C: 59 % of control
dose: 75.0 mg/kg/injection, schedule: Q04DX003 (ip), vehicle: saline
  T/C: 35 % of control

## O=CC(O)C(O)C(O)C(O)C(=O)O.[NH-]C1CCCCC1[NH-].[Pt+2] (configuration not stated)
dose: 9.38 mg/kg/injection, schedule: Q04DX003 (sc), vehicle: suspension in saline
  T/C: 48 % of control
dose: 18.75 mg/kg/injection, schedule: Q04DX003 (sc), vehicle: suspension in saline
  T/C: 28 % of control

## O=c1[nH]c(=O)n([C@H]2CCCO2)cc1F
dose: 100.0 mg/kg/injection, schedule: Q01DX010 (sc), vehicle: Klucel (hydroxypropylcellulose) (HPC)
  T/C: 112 % of control
dose: 200.0 mg/kg/injection, schedule: Q01DX010 (sc), vehicle: Klucel (hydroxypropylcellulose) (HPC)
  T/C: 97 % of control
dose: 800.0 mg/kg/injection, schedule: Q01DX010 (sc), vehicle: Klucel (hydroxypropylcellulose) (HPC)
  T/C: 123 % of control

## CCCCCCCCCCCCCCCCS(=O)CC(O)COC(=O)c1ccc(C(=O)OCC(O)CS(=O)CCCCCCCCCCCCCCCC)cc1 (configuration not stated)
dose: 50.0 mg/kg/injection, schedule: Q01DX010 (sc), vehicle: saline + Tween-80 + alcohol
  T/C: 58 % of control
dose: 100.0 mg/kg/injection, schedule: Q01DX010 (sc), vehicle: saline + Tween-80 + alcohol
  T/C: 115 % of control
dose: 200.0 mg/kg/injection, schedule: Q01DX010 (sc), vehicle: saline + Tween-80 + alcohol
  T/C: 100 % of control
dose: 400.0 mg/kg/injection, schedule: Q01DX010 (sc), vehicle: saline + Tween-80 + alcohol
  T/C: 82 % of control

## C/C=C(\C)C(=O)OC1C(C)=C2C(C1OC(=O)CCCCC)C(C)(OC(C)=O)CC(OC(=O)CCC)C1(O)C2OC(=O)C1(C)O (configuration not stated)
dose: 2.0 mg/kg/injection, schedule: Q04DX003 (ip), vehicle: Klucel (hydroxypropylcellulose) (HPC)
  T/C: 52 % of control

## [CH3][Sn]([CH3])([Cl])[c]1cc[c]([Sn]([CH3])([CH3])[Cl])cc1
dose: 1.25 mg/kg/injection, schedule: Q04DX003 (ip), vehicle: saline
  T/C: 98 % of control
dose: 2.5 mg/kg/injection, schedule: Q04DX003 (ip), vehicle: saline
  T/C: 101 % of control
dose: 5.0 mg/kg/injection, schedule: Q04DX003 (ip), vehicle: saline
  T/C: 89 % of control

## O=c1[nH]c(=O)n(C2CC(O)C(CO)O2)cc1Br (configuration not stated)
dose: 600.0 mg/kg/injection, schedule: Q04DX003 (sc), vehicle: Klucel (hydroxypropylcellulose) (HPC)
  T/C: 91 % of control
dose: 1200.0 mg/kg/injection, schedule: Q04DX003 (sc), vehicle: Klucel (hydroxypropylcellulose) (HPC)
  T/C: 80 % of control
dose: 2400.0 mg/kg/injection, schedule: Q04DX003 (sc), vehicle: Klucel (hydroxypropylcellulose) (HPC)
  T/C: 59 % of control
dose: 4800.0 mg/kg/injection, schedule: Q04DX003 (sc), vehicle: Klucel (hydroxypropylcellulose) (HPC)
  T/C: 27 % of control

## O=CNCO
dose: 300.0 mg/kg/injection, schedule: Q01DX010 (sc), vehicle: water
  T/C: 111 % of control
dose: 600.0 mg/kg/injection, schedule: Q01DX010 (sc), vehicle: water
  T/C: 62 % of control
dose: 1200.0 mg/kg/injection, schedule: Q01DX010 (sc), vehicle: water
  T/C: 37 % of control
dose: 2000.0 mg/kg/injection, schedule: Q01DX010 (sc), vehicle: water
  T/C: 5 % of control

## CC1=C(/C=C/C(C)=C/C=C/C(C)=C/C(=O)O)C(C)(C)CCC1
dose: 25.0 mg/kg/injection, schedule: Q01DX010 (sc), vehicle: saline with Tween-80
  T/C: 86 % of control
dose: 50.0 mg/kg/injection, schedule: Q01DX010 (sc), vehicle: saline with Tween-80
  T/C: 58 % of control
dose: 100.0 mg/kg/injection, schedule: Q01DX010 (sc), vehicle: saline with Tween-80
  T/C: 52 % of control

## Nc1nc2c(C(=O)N3CCCC3)nnn2c2ccccc12
dose: 37.5 mg/kg/injection, schedule: Q04DX003 (sc), vehicle: saline with Tween-80
  T/C: 35 % of control
dose: 75.0 mg/kg/injection, schedule: Q04DX003 (sc), vehicle: saline with Tween-80
  T/C: 74 % of control
dose: 150.0 mg/kg/injection, schedule: Q04DX003 (sc), vehicle: saline with Tween-80
  T/C: 49 % of control

## COc1ccc(/C=C/C(=O)c2cc(C(=O)O)c(OC)cc2OC)cc1OC
[6]
  T/C: 99 % of control

## S=c1nc[nH]c2nc[nH]c12
dose: 5.25 mg/kg/injection, schedule: Q01DX010 (sc), vehicle: Klucel (hydroxypropylcellulose) (HPC)
  T/C: 118 % of control
[7]
  T/C: 72 % of control and 79 % of control

## COc1cc(C2c3cc4c(cc3C(O)C(CO)C2CO)OCO4)cc(OC)c1OC (configuration not stated)
dose: 100.0 mg/kg/injection, schedule: Q04DX003 (sc), vehicle: saline with Tween-80
  T/C: 109 % of control
[1]
  T/C: 97 % of control
[2]
  T/C: 106 % of control
[3]
  T/C: 86 % of control

## O=C(CCBr)N1CCN(C(=O)CCBr)CC1
dose: 4.5 mg/kg/injection, schedule: Q01DX010 (sc), vehicle: Klucel (hydroxypropylcellulose) (HPC)
  T/C: 111 % of control
[7]
  T/C: 52 % of control
dose: 18.0 mg/kg/injection, schedule: Q01DX010 (sc), vehicle: Klucel (hydroxypropylcellulose) (HPC)
  T/C: 33 % of control and 48 % of control
dose: 25.0 mg/kg/injection, schedule: Q01DX010 (sc), vehicle: Klucel (hydroxypropylcellulose) (HPC)
  T/C: 19 % of control
dose: 36.0 mg/kg/injection, schedule: Q01DX010 (sc), vehicle: Klucel (hydroxypropylcellulose) (HPC)
  T/C: 1 % of control and 9 % of control

## COCC(O)Cn1ccnc1[N+](=O)[O-] (configuration not stated)
[6]
  T/C: 202 % of control
dose: 600.0 mg/kg/injection, schedule: Q04DX003 (sc), vehicle: suspension in saline
  T/C: 95 % of control
dose: 1200.0 mg/kg/injection, schedule: Q04DX003 (sc), vehicle: suspension in saline
  T/C: 108 % of control

## C/C=C1\C[C@@H]2C(OC)Nc3cc(O)c(OC)cc3C(=O)N2C1 (some centres not stated)
dose: 1.0 mg/kg/injection, schedule: Q04DX003 (sc), vehicle: saline
  T/C: 78 % of control
dose: 2.0 mg/kg/injection, schedule: Q04DX003 (sc), vehicle: suspension in saline
  T/C: 23 % of control and 31 % of control
dose: 4.0 mg/kg/injection, schedule: Q04DX003 (sc), vehicle: saline
  T/C: 7 % of control and 26 % of control
dose: 4.0 mg/kg/injection, schedule: Q04DX003 (sc), vehicle: suspension in saline
  T/C: 1 % of control and 3 % of control
dose: 8.0 mg/kg/injection, schedule: Q04DX003 (sc), vehicle: suspension in saline
  T/C: -71 % of control

## CCN(Cc1ccc(Cl)c(Cl)c1)c1ccc2nc(N)nc(N)c2c1C
dose: 9.38 mg/kg/injection, schedule: Q04DX003 (sc), vehicle: distilled water + Tween-80
  T/C: 93 % of control
dose: 18.75 mg/kg/injection, schedule: Q04DX003 (sc), vehicle: distilled water + Tween-80
  T/C: 86 % of control
